In patent US20220152174A1, “Cancer Antigen Peptide” (National University Corporation Asahikawa Medical University, priority 2018, published 2022):

Tests used:
[1] = test system: SYCP3, SPESP1, and DAZL1 gene expression in EBC1, Lu65, and HT-29; experiment: Gene expression in cancer cell lines cultured with gemcitabine; format: cell-based, human; settings: EBC1, Lu65, HT-29 cultured in the presence of gemcitabine
[2] = test system: HLA-DR4, DR8, DR9, DR15, DR53; experiment: HLA type restriction of partial DAZL-1 peptides with L-DR cells; format: cell-based, human
helper T-cells = experiment: IFN-γ ELISA after DAZL-1C vaccination of Balb/c mice; format: in vivo, mouse
Method: Two BALB/cAnNCrlCrlj mice (Balb/c, 10 to 16 weeks old, Charles river) were intradermally injected with 100 μg/50 μL DAZL-1C peptide ([…] (SEQ ID NO: 20): synthesized by GenScript) dissolved in phosphate-buffered saline (PBS, KANTO CHEMICAL CO., INC. 73111) using Myjector (TERUMO SS_05M2913) on Days 0 and 10. The mice were euthanized by intraperitoneally administering 200 μL of 500 μg/mL pentobarbital (nacalai tesque 02095-04) on Day 12. After laparotomy, dLNs and spleens were collected and lymphocytes and splenocytes, respectively, were isolated.
The lymphocytes (3×10^5 cells) and the splenocytes (5×10^5 cells) were added to 96-well flat bottom culture plates (Falcon 353072), and the cells were co-cultured in the presence of a control peptide or DAZL-1C peptide (2.5 μg/mL) in the complete medium at 200 μL/well for 24 hours. In order to detect IFN-γ production specific to DAZL-1C peptide, each 100 μL of the culture supernatants after 24 hours were collected, and the IFN-γ concentrations were determined using an ELISA set (BD Biosciences 551866) in accordance with the description of the attached package insert. In order to confirm that the reaction is produced by CD4-positive T-cells, an anti-mouse CD4 antibody (aCD4; BioLegend 100435) or an anti-mouse CD8 antibody (aCD8; BioLegend 100735) was added to some cultures at the final concentration of 5 μg/mL.

CD4-positive T-cells = experiment: IFN-γ ELISPOT after peptide vaccination of HLA transgenic mice; format: in vivo, mouse; settings: A2.DR1-Tg mice vaccinated with partial peptides, stimulation 3 μg/mL, 24 hours
Method: HLA-A*02:01/DRB1*01:01 transgenic mice (A2.DR1-Tg mice, […]; Pasteur Institute, France) were intradermally injected with SYCP3-A peptide (synthesized by GenScript) dissolved in 100 μL of PBS using Myjector on Days […]. The mice were euthanized by intraperitoneally administering 200 μL of 500 μg/mL pentobarbital on Day 15. After laparotomy, tumor-draining lymph nodes (dLNs) and spleens were collected and lymphocytes and splenocytes, respectively, were isolated.
The lymphocytes (3×10^5 cells) and the splenocytes (5×10^5 cells) were added to ELISPOT plates (EMD Millipore, MAHAS4510), and the cells were co-cultured in the presence of a control peptide (a peptide of 15 amino acid residues having a sequence not included in SYCP3) or SYCP3-A peptide selected in Test 4 (3 μg/mL) in the complete medium at 150 μL/well for […]. In order to detect the cells producing IFN-γ specifically to SYCP3-A peptide, the ELISPOT assay was performed using a mouse IFN-γ ELISpot BASIC (ALP) kit (MABTECH 3321-2A). The procedure was in accordance with the description of the attached package insert. BCIP-NBT-plus substrate for ELISpot (MABTECH 3650-10) was used as a chromogenic substrate, and PBS-T was used for washing at each step. In addition, in order to confirm that the reaction is produced by CD4-positive T-cells, an anti-mouse CD4 antibody (BioLegend 100435) or an anti-mouse CD8 antibody (BioLegend 100735) was added to some cultures at the final concentration of 5 μg/mL.
As described above, A2.DR1-Tg mice were vaccinated with these partial peptides, dLNs and spleens were collected from each mouse, lymphocytes and splenocytes were isolated, the cells were stimulated with each partial peptide (3 μg/mL) for 24 hours, and the T-cell responses were determined by ELISPOT. CD4-positive T-cells responded to the partial peptides T2, T3, and T4.

[3] = test system: SYCP3-A-specific Th cells; experiment: IFN-γ ELISA of SYCP3-A peptide-specific Th cells co-cultured with PBMCs; format: cell-based, human; settings: for IFN-γ production of SYCP3-A peptide-specific Th cells: peptide 3 μg/mL, Th cells plus PBMCs of same donor
Method: PBMCs were collected from peripheral blood samples of healthy donors by a density gradient separation method using Lymphoprep (Alere Technologies AS 1114547). CD14 positive cells were separated from PBMCs using a magnetic cell separation system (Miltenyi 130-050-201). Differentiation into dendritic cells (DCs) was induced by culturing the cells in the presence of 50 ng/mL GM-CSF (peprotech AF-300-03) and 50 ng/mL IL-4 (peprotech AF-200-04) with 3 mL of a culture medium for human cells in 6-well culture plates (Falcon 353046) for 7 days. The culture medium was AIM-V medium (ThermoFisher SCIENTIFIC 0870112DK) supplemented with 3% of human AB serum (Innovative RESEARCH IPLA-SERAB) inactivated at 56° C. for 30 minutes. Similarly, CD4-positive T-cells were isolated from PBMCs (Miltenyi 130-045-101), and 1×10^5 CD4-positive T-cells were co-cultured with 5×10^4 DCs in the presence of SYCP3-A or SPESP1-B peptide (3 μg/mL) in 96-well flat bottom culture plates (Falcon 353072) at the volume of 200 μL. After 7 days, in order to stimulate the CD4-positive T-cells with the peptide, 100 μL of the culture supernatant was removed from each well, and then SYCP3-A or SPESP1-B peptide (3 μg/mL) and PBMCs (2×10^5) inactivated by gamma-irradiation (40 Gy) were added at the volume of 100 μL. After 2 days, 50 μL of the culture supernatant was removed, and 50 μL of IL-2 (Imunace35, Shionogi) was added at the final concentration of 10 U/mL. For continuous proliferation of the activated CD4-positive T-cells, the cells (1×10^6 cells) were stimulated with SYCP3-A or SPESP1-B peptide and the inactivated PBMCs (1×10^6 cells) every other week and used for the experiments described below.
In order to study the HLA-restriction of the CD4-positive T-cells, an anti-DR antibody (BioLegend 307612) or an anti-HLA-class I antibody (BioLegend 311412) as a control was added to some cultures at the final concentration of 5 μg/mL.

DAZL1-specific Th cells = experiment: IFN-γ ELISA of DAZL-1 peptide-specific Th cells; format: cell-based, human
Method: (§1) PBMCs were collected from peripheral blood samples of healthy donors by a density gradient separation method using Lymphoprep (Alere Technologies AS 1114547). CD14 positive cells were separated from PBMCs using a magnetic cell separation system (Miltenyi 130-050-201). Differentiation into dendritic cells (DCs) was induced by culturing the cells in the presence of 50 ng/mL GM-CSF (peprotech AF-300-03) and 50 ng/mL IL-4 (peprotech AF-200-04) with 3 mL of a culture medium for human cells in 6-well culture plates (Falcon 353046) for 7 days. The culture medium was AIM-V medium (ThermoFisher SCIENTIFIC 0870112DK) supplemented with 3% of human AB serum (Innovative RESEARCH IPLA-SERAB) inactivated at 56° C. for 30 minutes. Similarly, CD4-positive T-cells were isolated from PBMCs (Miltenyi 130-045-101), and 1×10^5 CD4-positive T-cells were co-cultured with 5×10^4 DCs in the presence of SYCP3-A or SPESP1-B peptide (3 μg/mL) in 96-well flat bottom culture plates (Falcon 353072) at the volume of 200 μL. […]
The IFN-γ concentrations of the culture supernatants were determined in the same manner as in Test 8, except that partial DAZL-1 peptide p11, p12, or p13 was used instead of SYCP3-A peptide. […]

[4] = test system: SPESP1-B-specific Th cells; experiment: IFN-γ ELISA of SPESP1-B peptide-specific Th cells; format: cell-based, human
Method: as §1
The IFN-γ concentrations of the culture supernatants were determined in the same manner as in Test 8, except that SPESP1-B peptide was used instead of SYCP3-A peptide. […]

HLA-DR53 [5] = biological target: T1, HLA-DR53 (Homo sapiens, UniProt P01903+P13762); experiment: HLA type restriction of SPESP1-B with L-DR53; format: cell-based
T1 construct: expressed in transfected cells; host or cells: mouse fibroblast cell line L-DR53
Method: The IFN-γ concentrations of the culture supernatants were determined in the same manner as in Test 8, except that SPESP1-B peptide was used instead of SYCP3-A peptide. Two SPESP1-B-specific Th cell clones (HK15 and HK18) were established from one healthy donor. The peptide-specific IFN-γ production was suppressed when the anti-HLA-DR antibody (aDR) was added to the clones.

HLA-DR53 [6] = biological target: T1, HLA-DR53; experiment: HLA type restriction of SYCP3-A with L-DR mouse fibroblast cells; format: cell-based; settings: SYCP3-A 3 μg/mL, L-DR53 cells, 24 to 48 hours
Method: (§2) Furthermore, in order to identify the HLA type to which the peptide is restricted, the CD4-positive T-cells (5×10^4 cells) and 3×10^4 cells of a mouse fibroblast cell line having HLA-DR4, DR8, DR9, or DR53 gene (L-DR4, L-DR8, L-DR9, or L-DR53) were co-cultured in the presence of SYCP3-A peptide (3 μg/mL) in 96-well flat bottom culture plates using 200 μL of the culture medium for human cells, and after 24 to 48 hours the IFN-γ concentrations in the culture supernatants were determined as described above.

HLA-DR53 [7] = experiment: as above; format: cell-based, human; settings: SYCP3-A 3 μg/mL
Method: as §2

T1 sequence (P13762 30-266): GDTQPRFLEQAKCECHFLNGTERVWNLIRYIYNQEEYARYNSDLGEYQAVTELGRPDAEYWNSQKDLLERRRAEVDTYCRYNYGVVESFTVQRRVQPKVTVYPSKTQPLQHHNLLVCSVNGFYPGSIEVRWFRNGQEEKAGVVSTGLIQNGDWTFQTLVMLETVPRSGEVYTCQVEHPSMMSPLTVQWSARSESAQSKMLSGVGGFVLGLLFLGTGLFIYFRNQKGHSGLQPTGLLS
T1 sequence (P01903 26-254): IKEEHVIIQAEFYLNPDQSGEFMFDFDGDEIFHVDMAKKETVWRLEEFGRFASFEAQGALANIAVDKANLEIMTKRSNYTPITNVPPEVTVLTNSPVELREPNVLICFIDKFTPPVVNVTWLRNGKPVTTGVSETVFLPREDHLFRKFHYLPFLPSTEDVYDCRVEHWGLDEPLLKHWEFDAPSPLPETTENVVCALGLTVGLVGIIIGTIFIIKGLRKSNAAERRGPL

## Nc1ccn([C@@H]2O[C@H](CO)[C@@H](O)C2(F)F)c(=O)n1 [gemcitabine]
[1]
  gene expression levels of SYCP3, SPESP1, and DAZL1: equivalent to those of the controls

## DVQKIVESQINFHGKKLKLG (listed as Homo sapiens) [p11]
[2]
  HLA type bound to stimulate Th cells: HLA-DR4/9/53

## DVQKIVESQINFHGKKLKLGPAIRKQNLC (listed as Homo sapiens) [DAZL-1C]
Helper T-cells; Balb/c mice, 100 μg i.d. Days 0 and 10, restimulation 2.5 μg/mL, 24 hours
  ability to activate helper T-cells (peptide-specific IFN-γ production): activates helper T-cells
Helper T-cells; anti-mouse CD4 antibody 5 μg/mL
  IFN-γ production specific to peptide with anti-CD4 antibody: inhibited

## INFHGKKLKLGPAIRKQNLC (listed as Homo sapiens) [p12]
[2]
  HLA type bound to stimulate Th cells: HLA-DR15

## KILQQSRIVQSQ (listed as Homo sapiens) [T4]
CD4-positive T-cells
  T-cell response of CD4-positive T-cells to partial peptide by ELISPOT: responded
[3]
  IFN-γ production of SYCP3-A peptide-specific Th cells: Increased IFN-γ production

## LGPAIRKQNLCAYHVQPRPL (listed as Homo sapiens) [p13]
DAZL1-specific Th cells
  IFN-γ production with anti-HLA-DQ antibody: suppressed
[2]
  HLA type bound to stimulate Th cells: HLA-DR8

## QKILQQSRIVQS (listed as Homo sapiens) [T3]
CD4-positive T-cells
  T-cell response of CD4-positive T-cells to partial peptide by ELISPOT: responded
[3]
  IFN-γ production of SYCP3-A peptide-specific Th cells: Increased IFN-γ production

## QNLNHYIQVLENLVRSVPS (listed as Homo sapiens) [SPESP1-B]
[4]; clones HK15 and HK18, aDR
  peptide-specific IFN-γ production with anti-HLA-DR antibody: suppressed
[4]; peptide 0.0003 μg/mL (serially diluted 0.0003 to 30 μg/mL)
  IFN-γ production at low concentration: sufficient IFN-γ production
HLA-DR53 [5]
  HLA type binding and Th cell stimulation: binds to HLA-DR53 and stimulates Th cells

## QQKILQQSRIVQ (listed as Homo sapiens) [T2]
CD4-positive T-cells
  T-cell response of CD4-positive T-cells to partial peptide by ELISPOT: responded

## QQQKILQQSRIVQSQRLKT (listed as Homo sapiens) [SYCP3-A]
[3]; SYCP3-A 3 μg/mL, aDR 5 μg/mL, Th clones from three healthy donors
  peptide-specific IFN-γ production with anti-HLA-DR antibody: suppressed
HLA-DR53 [6]
  peptide-specific reaction (IFN-γ) of Th cells to L-DR53 cells: strong peptide-specific reactions
HLA-DR53 [7]
  reactivity in samples having no DR53 allele: some reactivity

## QQQKILQQSRVVQSQRLKT (listed as Homo sapiens) [SEQ ID NO: 31, 11th isoleucine residue of SYCP3-A peptide substituted with a valine residue]
[3]; modified or substituted peptide, similarly tested
  reactivity of SYCP3-A peptide-specific Th cells compared with SYCP3-A: not decreased
